The values below come from patent US3931344A, “Bromofluorocyclopropanes” (priority 1974, dated 1976).

Holding throughout (format): in vivo
The nature of series [1]: inhalation anesthesia test in mice (10 min exposure in a rotating drum; pinch, corneal and righting reflexes). The settings on record: mouse, in vivo, inhaled or intranasal; calculated from LC50 and AC50 in mice; read-out: AI (anesthetic index, LC50/AC50). The method, then: (§1) Mice were exposed to the anesthetic for a period of 10 minutes in a rotating drum. Observations were then made of the pinch reflex, the corneal reflex and the return of the righting reflex. At least four graded doses were employed to determine the minimum concentration required to anesthetize 50% of the mice used (AC50) and the minimum concentration required to kill 50% of the mice (LC50). The anesthetic index (AI) was then calculated from these minimum concentrations.

For series [2], the system named is mice. Described as above. Particulars: for potency as general anesthetics: administered in inhalation-anesthetic-susceptible organisms, in words; for AC50 (minimum concentration required to anesthetize 50% of the mice): inhalation, 10 minutes, rotating drum, at least four graded doses. The procedure:
as §1

Series [3] has as its system mice. Kind of series: lethality in mice on inhalation (LC50). The settings on record: 10 minutes, rotating drum, when two figures are given, the actual value lies between them. The procedure: as §1

Regarding `CC1CC1(F)Br` (centres unmarked) [Example 4, 1-bromo-1-fluoro-2-methylcyclopropane], the selectivity ratio at 10 min in series [1] is > 2. In series [2], the “potency as general anesthetics” value is “high potency” and the “AC50 (minimum concentration required to anesthetize 50% of the mice)” value was < 2 % volume. Also, in series [3], the “LC50 (minimum concentration required to kill 50% of the mice)” value is recorded as 4-6 % volume.
Turning to `CC1(F)CC1(F)Br` (centres unmarked) [Example 3, 1-bromo-1,2-difluoro-2-methylcyclopropane], the selectivity ratio at 10 min in series [1] was 10. Further, in series [2], the “potency as general anesthetics” value is reported as “high potency” and the “AC50 (minimum concentration required to anesthetize 50% of the mice)” value was found to be 0.5 % volume. Further, the “LC50 (minimum concentration required to kill 50% of the mice)” value in series [3] was 5 % volume.
